Source: patent publication US10206922B2, “Substituted pyrimidines for treatment of chronic cough, neuronal hypersensitivity underlying chronic cough, neuronal hypersensitivity underlying sub-acute cough and neuronal hypersensitivity underlying acute cough” (Afferent Pharmaceuticals. Inc., priority 2013, dated 2019)

System: idiopathic/treatment-resistant chronic cough patients
Experiment: double-blind randomized placebo-controlled crossover trial in idiopathic/treatment-resistant chronic cough
Format: in vivo, human
Details: 2 weeks
Procedure: Thus, the inventors explored the role of P2X3 receptors in the sensitization of vagal pathways mediating the cough reflex leading to chronic cough (CC). A study was performed to investigate the efficacy of oral administration of Compound 16 in reducing daytime cough in idiopathic/treatment-resistant chronic cough.
In this study, a double-blind randomized placebo-controlled crossover trial, 24 subjects (19 women, mean age 55 yrs) were randomized into a double blind, placebo-controlled, 2-period, crossover study, of Compound 16, 600 mg bd. Cough was assessed using an ambulatory sound monitoring system at baseline and after 2 weeks of treatment; primary endpoint, daytime objective cough frequency (coughs/hr) (VitaloJAK™); secondary endpoints, cough severity and urge to cough (UTC) visual analogue scales (VAS), global ratings of change and cough quality of life questionnaire (CQLQ).

In the case of `COc1cc(C(C)C)c(Oc2cnc(N)nc2N)cc1S(N)(=O)=O` [Compound 16, 5-(2,4-Diamino-pyrimidin-5-yloxy)-4-isopropyl-2-methoxy-benzenesulfonamide], the “CQLQ (cough quality of life questionnaire), mean difference vs. placebo” value (600 mg bd oral, (−2 to −17), p=0.018) is reported as −9, the “UTC (urge to cough) VAS, mean difference vs. placebo” value (600 mg bd oral, (−2 to −41), p=0.035) is reported as −21 mm and the “cough severity VAS, mean difference vs. placebo” value (600 mg bd oral, (−10 to −42), p=0.003) is reported as −26 mm. For the same compound, the “patients who rated an improved cough (global rating of change)” value (600 mg bd oral, compared to 2/22 treated with placebo) was 13/24 and the “daytime coughs/hr (daytime objective cough frequency), mean difference vs. placebo” value (Compound 16 600 mg bd oral, 24 subjects, 95% CI −50 to −88, p<0.001) was −75%.
